Assay results reported in ChEMBL document CHEMBL4270550, “Synthesis of pyrazolo[3,4-d]pyrimidin-4(5H)-ones tethered to 1,2,3-triazoles and their evaluation as potential anticancer agents” (2018).

What was measured:
U-87 MG [1] = assay: Antiproliferative activity against human U87 cells at 10 uM after 48 hrs by MTT assay relative to control; format: functional, U-87MG ATCC
C6 [2] = assay: Antiproliferative activity against rat C6 cells at 10 uM after 48 hrs by MTT assay relative to control; format: functional
U-87 MG [3] = assay: Cell cycle arrest in human U87 cells assessed as accumulation of cells at G2/M phase at 25 uM after 48 hrs by propidium iodide staining-based flow cytometric analysis (reference value: 19.4%); format: functional, U-87MG ATCC
U-87 MG [4] = assay: Induction of apoptosis in human U87 cells assessed as increase in cleaved PARP levels by Western blot analysis; format: functional, cell-based; conditions: U-87MG ATCC
U-87 MG [5] = assay: Cell cycle arrest in human U87 cells assessed as accumulation of cells at G2/M phase at 10 uM after 48 hrs by propidium iodide staining-based flow cytometric analysis (reference value: 19.4%); format: functional, U-87MG ATCC
U-87 MG [6] = assay: Cell cycle arrest in human U87 cells assessed as accumulation of cells at S phase at 25 uM after 48 hrs by propidium iodide staining-based flow cytometric analysis (reference value: 8.95%); format: functional, U-87MG ATCC
C6 [7] = assay: Antiproliferative activity against rat C6 cells after 48 hrs by MTT assay; format: functional, cell-based
U-87 MG [8] = assay: Cell cycle arrest in human U87 cells assessed as accumulation of cells at S phase at 50 uM after 48 hrs by propidium iodide staining-based flow cytometric analysis (reference value: 8.95%); format: functional, U-87MG ATCC
U-87 MG [9] = assay: Induction of apoptosis in human U87 cells assessed as increase in p53 levels by Western blot analysis; format: functional, cell-based; conditions: U-87MG ATCC
U-87 MG [10] = assay: Cell cycle arrest in human U87 cells assessed as accumulation of cells at G0/G1 phase at 50 uM after 48 hrs by propidium iodide staining-based flow cytometric analysis (reference value: 71.7%); format: functional, U-87MG ATCC
U-87 MG [11] = assay: Cell cycle arrest in human U87 cells assessed as accumulation of cells at G2/M phase at 50 uM after 48 hrs by propidium iodide staining-based flow cytometric analysis (reference value: 19.4%); format: functional, U-87MG ATCC
U-87 MG [12] = assay: Antiproliferative activity against human U87 cells after 48 hrs by MTT assay; format: functional, cell-based; conditions: U-87MG ATCC
U-87 MG [13] = assay: Cell cycle arrest in human U87 cells assessed as accumulation of cells at S phase at 10 uM after 48 hrs by propidium iodide staining-based flow cytometric analysis (reference value: 8.95%); format: functional, U-87MG ATCC
U-87 MG [14] = assay: Induction of apoptosis in human U87 cells after 48 hrs by propidium iodide staining-based flow cytometric analysis; format: functional, cell-based; conditions: U-87MG ATCC
U-87 MG [15] = assay: Cell cycle arrest in human U87 cells assessed as accumulation of cells at G0/G1 phase at 25 uM after 48 hrs by propidium iodide staining-based flow cytometric analysis (reference value: 71.7%); format: functional, U-87MG ATCC
U-87 MG [16] = assay: Cell cycle arrest in human U87 cells assessed as accumulation of cells at G0/G1 phase at 10 uM after 48 hrs by propidium iodide staining-based flow cytometric analysis (reference value: 71.7%); format: functional, U-87MG ATCC
U-87 MG [17] = assay: Induction of apoptosis in human U87 cells assessed as increase in caspase3 expression by Western blot analysis; format: functional, cell-based; conditions: U-87MG ATCC

Compound | Activity (U-87 MG [1]) [%] | Activity (C6 [2]) [%] | further results
COc1ccccc1-n1cc(Cn2cnc3c(cnn3-c3ccccc3)c2=O)nn1 | 15.7 | 4.91 | –
Cc1ccc(-n2cc(Cn3cnc4c(cnn4-c4ccccc4)c3=O)nn2)cc1 | 41.62 | 16.87 | –
COc1ccccc1-n1cc(Cn2cnc3c(cnn3-c3ccc(Cl)cc3)c2=O)nn1 | 32.98 | 16.37 | –
O=c1c2cnn(-c3ccc(Cl)cc3)c2ncn1Cc1cn(-c2ccccc2F)nn1 | 21.31 | – | –
Cc1cccc(-n2cc(Cn3cnc4c(cnn4-c4ccc(Cl)cc4)c3=O)nn2)c1C | 54.42 | 35.91 | –
O=c1c2cnn(-c3ccc(Cl)cc3)c2ncn1Cc1cn(-c2cccc(Cl)c2)nn1 | 47.29 | 9.55 | –
O=c1c2cnn(-c3ccccc3)c2ncn1Cc1cn(-c2ccccc2)nn1 | 52.34 | 34.1 | –
O=c1c2cnn(-c3ccccc3)c2ncn1Cc1cn(-c2ccccc2F)nn1 | 46.35 | – | –
Cc1ccccc1-n1cc(Cn2cnc3c(cnn3-c3ccccc3)c2=O)nn1 | 21.32 | 13.64 | –
O=c1c2cnn(-c3ccccc3)c2ncn1Cc1cn(-c2cccc(Cl)c2)nn1 | 47.69 | 17.87 | Activity (U-87 MG [3]): 2.03%; Activity (U-87 MG [4]): Dose-dependent effect; Activity (U-87 MG [5]): 12.52%; Activity (U-87 MG [6]): 17.13%; Activity (C6 [7]): Dose-dependent effect; Activity (U-87 MG [8]): 37.4%; Activity (U-87 MG [9]): Dose-dependent effect; Activity (U-87 MG [10]): 62.6%; Activity (U-87 MG [11]): 0.08%; Activity (U-87 MG [12]): Dose-dependent effect; Activity (U-87 MG [13]): 14.18%; Activity (U-87 MG [14]): Dose-dependent effect; Activity (U-87 MG [15]): 80.8%; Activity (U-87 MG [16]): 73.3%; Activity (U-87 MG [17]): Dose-dependent effect
Cc1cccc(-n2cc(Cn3cnc4c(cnn4-c4ccccc4)c3=O)nn2)c1C | 40.6 | – | –
O=c1c2cnn(-c3ccc(Cl)cc3)c2ncn1Cc1cn(-c2ccccc2)nn1 | 40.98 | – | –
